Measurements taken from patent US20250143306A1, “COMBINATION FOR IMPROVING PLANT GROWTH AND/OR YIELD, FORMULATION AND METHOD FOR INCREASING PLANT GROWTH, STRESS RESISTANCE, AND YIELDS, AND USE THEREOF” (INSTITUTE OF EXPERIMENTAL BOTANY CAS CR, V.V.I., priority 2022, published 2025).

Assays:
[1] = test system: wheat (Triticum aestivum) cv. Balitus; test: Root and shoot dry weight and total chlorophyll content of wheat under drought stress conditions (Example 2); type: in vivo
Experimental: To investigate the effect of the combinations on the weight parameters, and the total content of chlorophyll, seeds of wheat (Triticum aestivum) cv. Balitus were sown in a hydroponic growing system (Araponics, Liege, Belgium) using Hoagland's solution (control). Twenty days after sowing plants (except for control plants) were sprayed by either MTU (10 μM) or by nitrogen utilization enhancers alone or with a combination of MTU (10 μM) and nitrogen utilization enhancers. The plants were grown in a glasshouse at 20-28° C. under a combination of natural and artificial light. Since the treatment (20 days after sowing), the plants received low water doses. […] The root dry weight (RDW), shoot dry weight (SDW), and total chlorophyll content (TCC) of at least 25 plants were measured at the end of the experiment—45 days after the plants had been sown. RDW and SDW were recorded after drying the plants at 70° C. for 2 days. The chlorophyll content of each plant was measured by SPAD meter reading at the end of the experiment and TCC was calculated as SPAD value per SDW.

[2] = test system: wheat (Triticum aestivum) cv. Balitus; test: Root and shoot dry weight and leaf nitrogen content of hydroponically grown wheat under optimal conditions (Example 1); type: in vivo
Experimental: To investigate the effect of the combinations on the weight parameters, the seeds of wheat (Triticum aestivum) cv. Balitus were sown in a hydroponic growing system (Araponics, Liege, Belgium) using Hoagland's solution (control). Twenty days after sowing, plants (except for control plants) were sprayed by aqueous solution of either MTU (10 μM) or by a nitrogen utilization enhancer alone or by a combination of MTU (10 μM) with the nitrogen utilization enhancer. The plants were grown in the Czech Republic in a glasshouse at 16-25° C. under natural and artificial light during the winter period. The root dry weight (RDW), shoot dry weight (SDW) and the nitrogen content in the leaves of at least 30 plants were measured 45 days after the plants had been sown. RDW and SDW were recorded after drying the plants at 70° C. for 2 days.

Compound | RDW % of control ([1]; concentration 100 mg/L) | RDW (root dry weight) ([1]; concentration 100 mg/L) [g] | SDW % of control ([1]; concentration 100 mg/L) | SDW (shoot dry weight) ([1]; concentration 100 mg/L) [g] | RDW % of control ([1]; concentration 250 mg/L) | RDW (root dry weight) ([1]; concentration 250 mg/L) [g] | SDW % of control ([1]; concentration 250 mg/L) | SDW (shoot dry weight) ([1]; concentration 250 mg/L) [g] | RDW % of control ([2]; concentration 100 mg/L) | RDW (root dry weight) ([2]; concentration 100 mg/L) [g] | SDW % of control ([2]; concentration 100 mg/L) | SDW (shoot dry weight) ([2]; concentration 100 mg/L) [g] | Nitrogen content in the leaves ([2]; concentration 250 mg/L) [weight %] | RDW % of control ([2]; concentration 250 mg/L) | RDW (root dry weight) ([2]; concentration 250 mg/L) [g] | SDW % of control ([2]; concentration 250 mg/L) | SDW (shoot dry weight) ([2]; concentration 250 mg/L) [g] | further results
O=C(O)CCC(=O)C(=O)O [2-oxoglutarate] | +11.9% | 0.75 | +10.7% | 1.35 | +16.4% | 0.78 | +14.8% | 1.4 | +8.8% | 0.87 | +5.3% | 1.60 | 4.67 | +13.8% | 0.91 | +8.6% | 1.65 | TCC % (total chlorophyll content) ([1]; concentration 100 mg/L): 107%; TCC % (total chlorophyll content) ([1]; concentration 250 mg/L): 112%
NC(=O)CC[C@H](N)C(=O)O [glutamine] | +10.4% | 0.74 | +7.4% | 1.31 | +16.4% | 0.78 | +11.5% | 1.36 | +10.0% | 0.88 | +5.3% | 1.60 | 4.59 | +12.5% | 0.90 | +6.6% | 1.62 | 
O=C(O)[C@@H]1CCCN1 [Proline, proline] |  |  |  |  | +7.5% | 0.72 | +4.9% | 1.28 |  |  |  |  | 4.69 | +7.5% | 0.86 | +3.3% | 1.57 | 
OP(O)O [[PO3]^3−, phosphite] |  |  |  |  |  |  |  |  |  |  |  |  |  |  |  |  |  | RDW % of control ([1]; concentration 600 mg/L): +16.4%; RDW (root dry weight) ([1]; concentration 600 mg/L): 0.78 g; SDW % of control ([1]; concentration 600 mg/L): +8.2%; SDW (shoot dry weight) ([1]; concentration 600 mg/L): 1.32 g; TCC % (total chlorophyll content) ([1]; concentration 600 mg/L): 105%; Nitrogen content in the leaves ([2]; concentration 600 mg/L): 4.81 weight %; RDW % of control ([2]; concentration 600 mg/L): +18.8%; RDW (root dry weight) ([2]; concentration 600 mg/L): 0.95 g; SDW % of control ([2]; concentration 600 mg/L): +14.5%; SDW (shoot dry weight) ([2]; concentration 600 mg/L): 1.74 g
poly-γ-(glutamic acid) [γ-PGA] |  |  |  |  | +9.0% | 0.73 | +2.5% | 1.25 |  |  |  |  | 4.74 | +5.0% | 0.84 | +6.6% | 1.62 | TCC % (total chlorophyll content) ([1]; concentration 250 mg/L): 112%
CCCCCC(=O)OCCN(CC)CC [DA6, diethyl aminoethyl hexanoate] |  |  |  |  |  |  |  |  |  |  |  |  |  |  |  |  |  | RDW % of control ([1]; concentration 20 mg/L): +13.4%; RDW (root dry weight) ([1]; concentration 20 mg/L): 0.76 g; SDW % of control ([1]; concentration 20 mg/L): +6.6%; SDW (shoot dry weight) ([1]; concentration 20 mg/L): 1.3 g; TCC % (total chlorophyll content) ([1]; concentration 20 mg/L): 110%; Nitrogen content in the leaves ([2]; concentration 25 mg/L): 4.53 weight %; RDW % of control ([2]; concentration 25 mg/L): +8.8%; RDW (root dry weight) ([2]; concentration 25 mg/L): 0.87 g; SDW % of control ([2]; concentration 25 mg/L): +5.9%; SDW (shoot dry weight) ([2]; concentration 25 mg/L): 1.61 g
N[C@@H](CC(=O)O)C(=O)O [Aspartic acid, aspartic acid] |  |  |  |  | +14.9% | 0.77 | +3.3% | 1.26 |  |  |  |  | 4.53 | +15.0% | 0.92 | −1.3% | 1.50 | 
N[C@@H](CCC(=O)O)C(=O)O [Glutamic acid, glutamic acid] | +9.0% | 0.73 | +4.1% | 1.27 | +19.4% | 0.8 | +3.3% | 1.26 | +6.3% | 0.85 | +2.0% | 1.55 | 4.56 | +15.0% | 0.92 | +3.9% | 1.58 | 
CC(=O)N1CSCC1C(=O)O (centres unmarked) [NATCA, N-acetyl thiazolidine 4-carboxylic acid] | +11.9% | 0.75 | +9.8% | 1.34 |  |  |  |  | +12.5% | 0.9 | +7.2% | 1.63 |  |  |  |  |  | Nitrogen content in the leaves ([2]; concentration 100 mg/L): 4.77 weight %
C[N+](C)(C)CC(=O)[O-] [Glycine betaine, glycine betaine] |  |  |  |  |  |  |  |  |  |  |  |  |  |  |  |  |  | RDW % of control ([1]; concentration 5 g/L): +4.5%; RDW (root dry weight) ([1]; concentration 5 g/L): 0.70 g; SDW % of control ([1]; concentration 5 g/L): +7.4%; SDW (shoot dry weight) ([1]; concentration 5 g/L): 1.31 g; TCC % (total chlorophyll content) ([1]; concentration 5 g/L): 110%
NCC(=O)O [glycine] | +7.5% | 0.72 | +5.7% | 1.29 | +13.4% | 0.76 | +11.5% | 1.36 | +5.0% | 0.84 | +5.9% | 1.61 | 4.64 | +7.5% | 0.86 | +8.6% | 1.65 | 
NCCCC(=O)O [GABA, γ-aminobutyric acid] |  |  |  |  |  |  |  |  |  |  |  |  |  |  |  |  |  | Nitrogen content in the leaves ([2]; concentration 200 mg/L): 4.82 weight %; RDW % of control ([2]; concentration 200 mg/L): +5.0%; RDW (root dry weight) ([2]; concentration 200 mg/L): 0.84 g; SDW % of control ([2]; concentration 200 mg/L): +4.6%; SDW (shoot dry weight) ([2]; concentration 200 mg/L): 1.59 g
